Patent US10183915B2, “Axially chiral isomers, and preparation methods therefor and pharmaceutical uses thereof” (MEDSHINE DISCOVERY INC., priority 2015, dated 2019)

How the values were obtained:
[1] = Stability of compounds in DMSO solutions (heated; SFC chiral purity); type: physicochemical; settings: for Enantiomer Excess of Compound: DMSO solution
Description: Example 4: Evaluation of the Stability of Compounds in DMSO Solutions
An appropriate amount of test compound was accurately weighed, added into DMSO to obtain a DMSO solution. The DMSO solution of the compound was stirred in a heated oil bath. At the end of the test, a sample amount of the DMSO solution was diluted with ethanol and the purity and chiral purity of the compound was detected by high performance liquid chromatography (HPLC) or LC-MS (LCMS) and supercritical fluid chromatography (SFC).

[2] = Stability of compounds in SD rat plasma; type: in vitro ADME; settings: for Recovery (% remaining): SD rat plasma, 2 μM, 37° C.
Description: Test 5: Evaluation of the Stability of Compounds in Rat Plasma and Human Plasma
2. Experimental Procedures and Methods • 2.1 Prior to the experiment, the frozen plasma stored at −40° C. was thawed at room temperature and incubated in a 37° C. water bath for 5-10 min; centrifuged at 4000 rpm for 5 min, to remove impurities and lipids in the plasma. Measured the value of pH, if required, adjusted it to 7.4±0.1. • 2.2 Prepared 400 μM intermediate solution by diluting 4 μL of the working solution (10 mM) with 96 μL DMSO. • 2.3 Preparation of incubation samples: Remove 3 μL of intermediate solution (400 μM) to mix with 597 μL of blank plasma to achieve 2 μM of final concentration. Incubate each time point samples (0 min, 10 min, 30 min, 60 min, 120 min, in duplicate) at 37° C. in water bath. • 2.4 An aliquot of 100 μL samples of the final spiked plasma for each time point were removed to sample collected plates, added 400 μL of stop solution (200 ng/mL Tolbutamide plus 20 ng/mL Buspirone in 50% ACN/MeOH) to precipitate protein. Mixed thoroughly. • 2.5 Centrifuged each plate at 4,000 rpm for 20 min. Transfered an aliquot of supernatant (100 μL) from each well to sample plate and mixed with 200 μL ultra pure water. Shaked the plate at 800 rpm for about 10 min before submitting to LC-MS/MS analysis. 3. Experimental Data Analysis
The ratio of the peak area to the internal standard peak area was used to assess the decrease of the test compound to be measured. The % remaining of the test compound after incubation in plasma was calculated using following equation: % Remaining=100×(PAR at appointed incubation time/PAR at T0 time)
wherein PAR is the peak area ratio of analyte versus internal standard (IS)
The appointed incubation time points are: 0 min, 10 min, 30 min, 60 min, 120 min; T0: Samples prior to incubation.

Structure (SMILES): O=C(O)CSc1nnc(Br)n1-c1ccc(C2CC2)c2ccccc12 (single isomer, unassigned) [(+)-Lesinurad]
- Enantiomer Excess of Compound ([1]; 80° C., 0 h): 95.9%
- Enantiomer Excess of Compound ([1]; 80° C., 2 × 24 h): Unchanged
- Enantiomer Excess of Compound ([1]; 80° C., 4 × 24 h): Unchanged
- Enantiomer Excess of Compound ([1]; 80° C., 2 h): Unchanged
- Enantiomer Excess of Compound ([1]; 80° C., 4 h): Unchanged
- Enantiomer Excess of Compound ([1]; 80° C., 8 h): Unchanged
- Enantiomer Excess of Compound ([1]; 80° C., 24 h): Unchanged
- Enantiomer Excess of Compound ([1]; 120° C., 0 h): 95.9%
- Enantiomer Excess of Compound ([1]; 120° C., 2 × 24 h): Unchanged
- Enantiomer Excess of Compound ([1]; 120° C., 4 × 24 h): Unchanged
- Enantiomer Excess of Compound ([1]; 120° C., 2 h): Unchanged
- Enantiomer Excess of Compound ([1]; 120° C., 4 h): Unchanged
- Enantiomer Excess of Compound ([1]; 120° C., 8 h): Unchanged
- Enantiomer Excess of Compound ([1]; 120° C., 24 h): Unchanged
- Enantiomer Excess of Compound ([1]; 160° C., 0 h): 95.9%
- Enantiomer Excess of Compound ([1]; 160° C., 8 h): Unchanged
- Stability in DMSO solutions (SFC purity) ([1]; heating to 80° C., 120° C. and up to 160° C.): very stable
- Stability after co-incubation with SD-rat plasma ([2]; 2 hours): very stable
- Recovery (% remaining) ([2]; 30 min): 100.3%
- Recovery (% remaining) ([2]; 60 min): 99.7%
- Recovery (% remaining) ([2]; 120 min): 101.2%
